Active and inactive are the calls of the source.
Assays:
[1] = molecular target: T1, Sodium- and chloride-dependent GABA transporter 1 (Mus musculus, UniProt P31648); assay: Inhibition of mouse GAT1 expressed in human HEK293 cell line assessed as inhibition of [3H]GABA uptake measured after 40 mins by […]; assay type: cell-based
[2] = molecular target: T1, Sodium- and chloride-dependent GABA transporter 1; assay: Inhibition of NO711 binding to mouse GAT1 expressed in human HEK293 cell line by MS binding assay
[3] = molecular target: T2, GABA transporter 4 (Mus musculus, UniProt P31650); assay: Inhibition of mouse GAT4 expressed in human HEK293 cell line assessed as inhibition of [3H]GABA uptake measured after 40 mins by […]; assay type: cell-based
T2 sequence (P31650 whole entry): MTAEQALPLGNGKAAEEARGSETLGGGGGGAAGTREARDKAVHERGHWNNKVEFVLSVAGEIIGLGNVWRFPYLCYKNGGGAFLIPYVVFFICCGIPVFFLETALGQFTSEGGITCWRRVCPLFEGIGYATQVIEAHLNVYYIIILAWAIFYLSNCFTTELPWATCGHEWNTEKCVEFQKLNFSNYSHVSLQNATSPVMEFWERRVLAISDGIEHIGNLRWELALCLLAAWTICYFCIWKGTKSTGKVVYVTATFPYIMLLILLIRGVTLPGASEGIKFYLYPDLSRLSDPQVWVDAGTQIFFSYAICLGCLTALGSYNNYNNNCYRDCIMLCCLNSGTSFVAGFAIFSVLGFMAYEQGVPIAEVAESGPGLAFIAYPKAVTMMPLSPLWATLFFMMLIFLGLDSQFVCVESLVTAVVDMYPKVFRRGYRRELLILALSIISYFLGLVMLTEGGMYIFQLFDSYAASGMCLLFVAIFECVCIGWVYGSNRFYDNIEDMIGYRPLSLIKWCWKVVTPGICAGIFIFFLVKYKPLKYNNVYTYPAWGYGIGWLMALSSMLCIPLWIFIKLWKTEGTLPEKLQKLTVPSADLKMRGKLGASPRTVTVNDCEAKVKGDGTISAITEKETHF

[4] = molecular target: T3, GABA transporter 2 (Mus musculus, UniProt P31651); assay: Inhibition of mouse GAT2 expressed in human HEK293 cell line assessed as inhibition of [3H]GABA uptake measured after 40 mins by […]; assay type: cell-based
T3 sequence (P31651 whole entry): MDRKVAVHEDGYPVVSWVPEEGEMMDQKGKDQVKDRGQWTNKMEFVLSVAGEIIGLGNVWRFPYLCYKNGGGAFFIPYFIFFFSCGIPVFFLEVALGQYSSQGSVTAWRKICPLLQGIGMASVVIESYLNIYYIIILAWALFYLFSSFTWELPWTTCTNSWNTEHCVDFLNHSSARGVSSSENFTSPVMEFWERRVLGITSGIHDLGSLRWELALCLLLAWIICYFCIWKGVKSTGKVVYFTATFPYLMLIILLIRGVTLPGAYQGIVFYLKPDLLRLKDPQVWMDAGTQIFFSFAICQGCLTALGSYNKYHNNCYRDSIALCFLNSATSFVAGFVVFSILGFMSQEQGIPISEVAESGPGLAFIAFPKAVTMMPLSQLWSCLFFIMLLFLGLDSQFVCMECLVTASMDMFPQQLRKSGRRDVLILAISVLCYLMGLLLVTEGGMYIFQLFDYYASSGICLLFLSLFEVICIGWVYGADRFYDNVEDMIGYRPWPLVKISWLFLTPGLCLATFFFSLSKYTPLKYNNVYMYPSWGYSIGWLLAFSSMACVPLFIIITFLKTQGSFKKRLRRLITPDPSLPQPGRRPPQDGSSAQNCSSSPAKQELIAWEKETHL

[5] = molecular target: Sodium- and chloride-dependent GABA transporter 1 (Mus musculus) (UniProt P31648); assay: Residual NO711 binding to mouse GAT1 expressed in human HEK293 cell line at 100 uM by MS binding assay relative to control
[6] = molecular target: GABA transporter 3 (Mus musculus, Slc6a13); assay: Inhibition of mouse GAT3 expressed in human HEK293 cell line assessed as inhibition of [3H]GABA uptake measured after 40 mins by […]
[7] = molecular target: T4, GABA transporter 2 (Mus musculus) (UniProt P31651); assay: Inhibition of mouse GAT2 expressed in human HEK293 cell line assessed as residual [3H]GABA uptake at 100 uM measured after 40 mins by […]
T4 sequence (whole entry): T3 sequence (P31651 whole entry)

[8] = test system: Mus musculus; assay: Anticonvulsant activity in CD-1 mouse assessed as elevation of seizure threshold at 10 mg/kg, ip measured by electroconvulsive threshold test relative to control; assay type: functional, organism-based

IC50 [1]	pKi [2]	IC50 [3]	IC50 [4]	residual activity [5]	pIC50 [6]	residual activity [7]	Compound	Activity [8]
2 µM							O=C(O)[C@@H]1CCCN(CCC=C2c3ccccc3-c3ccccc32)C1	
6.31 µM	4.96	4.37 µM	11.7 µM				CN(CCC=C1c2ccccc2CCc2ccccc21)C(CCN)C(=O)NCc1ccc(F)cc1 (centres undefined)	
10 µM		15.8 µM	7.76 µM	79%			CN(CCC=C1c2ccccc2CCc2ccccc21)C(CCO)C(=O)NCc1ccc(Cl)cc1 (centres undefined)	
			4.47 µM		5.61		CC(=O)NCCC(C(=O)NCc1ccccc1Cl)N(C)CCC=C(c1sccc1C)c1sccc1C (centres undefined)	
28.8 µM		17.8 µM	37.2 µM	77%			CC(=O)NCCC(C(=O)NCc1ccccc1)N(C)CCC=C1c2ccccc2CCc2ccccc21 (centres undefined)	
7.24 µM	5.14	6.46 µM	11.2 µM				Cc1ccc(CNC(=O)C(CCN)N(C)CCC=C2c3ccccc3CCc3ccccc32)cc1 (centres undefined)	
72.4 µM		1.29 µM		77%		73%	COc1ccc(C(OCCN2CCC[C@H](C(=O)O)C2)(c2ccc(OC)cc2)c2ccc(-c3ccc(C=O)cc3)cc2)cc1	
37.2 µM		35.5 µM	25.7 µM	90%			CN(CCC=C1c2ccccc2-c2ccccc21)C(CCO)C(=O)NCc1ccc(F)cc1 (centres undefined)	
6.31 µM	4.6	5.62 µM	11 µM				CN(CCC=C1c2ccccc2CCc2ccccc21)C(CCN)C(=O)NCc1ccc(Cl)cc1 (centres undefined)	
13.8 µM		11.2 µM	19.5 µM	71%			CC(=O)NCCC(C(=O)NCc1ccc(F)cc1)N(C)CCC=C1c2ccccc2CCc2ccccc21 (centres undefined)	
13.5 µM							O=C(O)C1CCCN(CCC=C2c3ccccc3CCc3ccccc32)C1 (centres undefined)	
13.8 µM		13.5 µM	15.5 µM	69%			CC(=O)NCCC(C(=O)NCc1ccc(C)cc1)N(C)CCC=C1c2ccccc2CCc2ccccc21 (centres undefined)	
27.5 µM		9.12 µM	9.77 µM	55%			Cc1ccc(CNC(=O)C(CCO)N(C)CCC=C2c3ccccc3C=Cc3ccccc32)cc1 (centres undefined)	
21.9 µM		13.2 µM	5.75 µM	81%			CN(CCC=C1c2ccccc2CCc2ccccc21)C(CCO)C(=O)NCc1ccc(F)cc1 (centres undefined)	
69.2 µM		15.8 µM	14.5 µM	63%			CN(CCC=C1c2ccccc2C=Cc2ccccc21)C(CCO)C(=O)NCc1ccc(Cl)cc1 (centres undefined)	
28.2 µM		12.6 µM	47.9 µM	90%			CC(=O)NCCC(C(=O)NCc1ccc(Cl)cc1)N(C)CCC=C1c2ccccc2CCc2ccccc21 (centres undefined)	
8.13 µM	4.78	4.68 µM	9.55 µM				CN(CCC=C1c2ccccc2CCc2ccccc21)C(CCN)C(=O)NCc1ccccc1 (centres undefined)	
	8.29		49 µM		4.35		O=C(O)C1=CCCN(CCO/N=C/c2ccccc2-c2ccc(Cl)cc2Cl)C1	inactive
		10 µM	12.6 µM	54%	5.14		CN(CCC=C(c1ccccc1)c1ccccc1)C(CCO)C(=O)NCc1ccccc1Cl (centres undefined)	
31.6 µM		30.9 µM	30.2 µM	99%			Cc1ccc(CNC(=O)C(CCO)N(C)CCC=C2c3ccccc3-c3ccccc32)cc1 (centres undefined)	
25.1 µM		15.8 µM	11 µM	82%			CN(CCC=C1c2ccccc2CCc2ccccc21)C(CCO)C(=O)NCc1ccccc1Cl (centres undefined)	
20.9 µM		9.55 µM	6.76 µM	69%			CN(CCC=C1c2ccccc2C=Cc2ccccc21)C(CCO)C(=O)NCc1ccccc1Cl (centres undefined)	
28.8 µM		18.6 µM	26.3 µM	87%			CC(=O)NCCC(C(=O)NCc1ccccc1Cl)N(C)CCC=C1c2ccccc2CCc2ccccc21 (centres undefined)	
20 µM		17 µM	9.12 µM	51%			CN(CCC=C1c2ccccc2CCc2ccccc21)C(CCO)C(=O)NCc1ccccc1 (centres undefined)	
42.7 µM		44.7 µM	32.4 µM	91%			CN(CCC=C1c2ccccc2-c2ccccc21)C(CCO)C(=O)NCc1ccc(Cl)cc1 (centres undefined)	
33.1 µM		26.9 µM	25.7 µM	93%			CN(CCC=C1c2ccccc2-c2ccccc21)C(CCO)C(=O)NCc1ccccc1Cl (centres undefined)	
	4.96						CN(CCC=C(c1ccccc1)c1ccccc1)C(CCN)C(=O)NCc1ccccc1Cl (centres undefined)	
21.9 µM		13.5 µM	10.2 µM	71%			CN(CCC=C1c2ccccc2C=Cc2ccccc21)C(CCO)C(=O)NCc1ccc(F)cc1 (centres undefined)	
24 µM		25.1 µM	17.8 µM	75%			CN(CCC=C1c2ccccc2-c2ccccc21)C(CCO)C(=O)NCc1ccccc1 (centres undefined)	
6.61 µM	4.87	4.9 µM	13.5 µM				CN(CCC=C1c2ccccc2CCc2ccccc21)C(CCN)C(=O)NCc1ccccc1Cl (centres undefined)	

Reference: ChEMBL document CHEMBL4837220, “Development of tricyclic N-benzyl-4-hydroxybutanamide derivatives as inhibitors of GABA transporters mGAT1-4 with anticonvulsant, antinociceptive, and antidepressant activity” (Eur J Med Chem, 2021)
